Experiment [1] deals with B-divergens. The experiment in a line: Activity against B-divergens in vitro in bovine red cells. Conditions: Bos taurus, read-out: IC50 Bovine. In kind it is cell-based. The procedure:
(§1) Activity against Babesiosis in vitro
(§2) The activity of the test compound against B-divergens in vitro, both in bovine and human red cells was measured and compared with the activities of standard anti-babesials.

Experiment [2] has as its system B-divergens. The experiment in a line: Activity against B-divergens in vitro in human red cells. Format: cell-based. As to conditions: for IC50: read-out: IC50 Human. The method, then:
as §1, §2

Experiment [3] relates to B-divergens. As to conditions: two patients; cited from earlier work.
Another experiment relates to B. divergens. The experiment in a line: Activity against B. divergens infection in gerbils, single oral dose at the time of infection. Conditions: for % Activity / Days to 0.1% Parasitaemia / Days to Redwater / Maximum % Parasitaemia / % Control % Parasitaemia (day 3): single dose. Format: in vivo. The method, then:
Gerbils, in groups of 5, were injected intraperitoneally with gerbil erythrocytes infected with 10^7 B divergens. At the time of infection, the gerbils were given, per os by stomach tube, a single dose of test compound, diluted in methyl cellulose. The gerbils were assessed for the time to reach 0.1% parasitaemia and the time to reach haemoglobinurea (redwater). The maximum parasitaemia reached and suppression of parasitaemia relative to controls were assessed and the activity of the test compound calculated.

The subject of the next experiment is Leishmania donovani. Kind of experiment: Activity against Leishmania donovani in vitro in mouse peritoneal macrophages. In kind it is cell-based, Leishmania donovani (in macrophages of CDl mice). The procedure:
Leishmania donovani was routinely maintained in male golden hamsters (Wright'strain). Amastigotes were isolated from the spleen of infected hamsters 6-8 weeks after infection for use in experimental studies.
The procedure of Neal and Croft (Journal of Antimicrobial Chemotherapy 14, 463-475 (1984) was followed. Mouse peritoneal macrophages were isolated from the peritoneal cavity of outbred CDl mice. Macrophages were cultured in Labtek eight-well tissue chamber slides in RPMI 1640 medium plus 10% heat-inactivated foetal calf serum at 37° in a 5% CO2 -air mixture. Cultures were infected with freshly isolated amastigotes 24 hours before the start of drug treatment. Finally, infected macrophages where incubated in the presence of medium containing the test compound for 7 days, medium being replaced on days 1, 3 and 5 after infection.
The compound was tested in a five-fold dilution series from 50 μM with four replicates at each dilution. Fine suspensions of the compound for testing were prepared by dilution with medium of solutions initially prepared in echanol.
The proportion of infected macrophages in Giemsa stained preparations was determined after 7 days exposure to the test compound. The ED50 value was calculated by a sigmoidal analysis.

In a further experiment the test system is L. donovani. Kind of experiment: Activity against L. donovani in vivo in Balb/c mice. Set-up: species or system L. donovani (in male Balb/c mice). As to conditions: for % Suppression of Liver Amastigotes: 0.25% cellacol. The procedure: Male Balb/c mice were infected intravenously with 5×10^6 L. donovani amastigotes obtained as in Example 5. One week after infection mice were randomly divided into groups of 5 and treatment with test compound commenced, using cellacol as the vehicle for the test compound. Four days after the completion of treatment all mice were sacrificed. Their livers were removed, weighted and impression smears were fixed with methanol and […] stained. The activity of the compound was determined from the number of amastigotes/500 liver cells in treated and untreated groups.

Data on eight compounds can be found in patent publication US5559156A, “Method for treating animals infected with Babesia spp” (Glaxo Wellcome, Inc., priority 1994, dated 1996).

For `O=C(Nc1cccc(C2=NCCN2)c1)Nc1cccc(C2=NCCN2)c1` [Imizol], the IC50 (commonly the concentration needed to halve the response being measured) with B-divergens [1] (in vitro, bovine red cells) amounted to 100 nM; in the experiment with B-divergens [2] (in vitro, human red cells), 310 nM. Further, the “use in patients to cure B-divergens” value in the experiment on B-divergens [3] is “used successfully in two patients to cure B-divergens”.
Turning to `CC[n+]1c(-c2ccccc2)c2cc(N)ccc2c2ccc(N)cc21` [Ethidium bromide], the IC50 worked out at 47 nM in the experiment on B-divergens [1] and 69 nM in the experiment with B-divergens [2] (Homo sapiens).
In the case of `O=C1C(O)=C([C@H]2CC[C@H](c3ccc(Cl)cc3)CC2)C(=O)c2ccccc21` [Test compound, 2-[trans-4-(4-chlorophenyl)cyclohexyl]-3-hydroxy-1,4-naphthoquinone], the IC50 came out at 17.9 nM in the experiment on B-divergens [1] (in vitro, bovine red cells) and 36.3 nM in the experiment with B-divergens [2] (in vitro, human red cells). In addition, the “effectiveness in vitro compared with Imizol” value with B-divergens [2] (in vitro, Table 1 covers bovine and human red cells) is “more effective than Imizol in vitro”.
As to `N=C(N)c1cccc(NC(=O)Nc2cccc(C(=N)N)c2)c1` [Amicarbalide isethionate], the half-inhibitory concentration (IC50) in the experiment on B-divergens [1] (in vitro, bovine red cells) was determined as 460 nM; with B-divergens [2] (in vitro, human red cells), 517 nM.
As to `O=C1C(O)=C(C2CCC(c3ccc(Cl)cc3)CC2)C(=O)c2ccccc21` (centres unmarked) [2-[4-(4-chlorophenyl)cyclohexyl]-3-hydroxy-1,4-napthoquinone], in the experiment on B. divergens (0.1 mg/kg per os), the “% Activity” value worked out at 0.0%, the “Days to 0.1% Parasitaemia” value is 1.0 ± 0.0 days, the “Days to Redwater” value came out at 3.0 ± 0.0 days and the “Maximum % Parasitaemia” value is listed as above 40%. Besides, the “% Control % Parasitaemia (day 3)” value in the experiment on B. divergens (0.1 mg/kg per os) is listed as 138.7 ± 18.6%. In the experiment with B. divergens (1.0 mg/kg per os), the “% Activity” value came out at 86.1%, the “Days to 0.1% Parasitaemia” value came out at 2.5 ± 0.57 days, the “Days to Redwater” value was 4.0 ± 0.82 days and the “Maximum % Parasitaemia” value is on record as above 40%. Also, the “% Control % Parasitaemia (day 3)” value in the experiment with B. divergens (1.0 mg/kg per os) turned out to be 13.9 ± 4.3%. Also, in the experiment on B. divergens (10.0 mg/kg per os), the “% Activity” value is given as 100%, the “Days to 0.1% Parasitaemia” value was 5.6 ± 2.5 days, the “Days to Redwater” value was 9.2 ± 1.8 days and the “Maximum % Parasitaemia” value is given as 4.02%. Further, the “% Control % Parasitaemia (day 3)” value in the experiment on B. divergens (10.0 mg/kg per os) is 0.0%. Also, in the experiment on B. divergens (50.0 mg/kg per os), the “% Activity” value is 100%, the “Days to 0.1% Parasitaemia” value was above 10.0 days, the “Days to Redwater” value is above 10.0 days and the “Maximum % Parasitaemia” value stood at 0.0%. Also, the “% Control % Parasitaemia (day 3)” value in the experiment with B. divergens (50.0 mg/kg per os) was 0.0%. The “activity in vivo against B. divergens in gerbils” value with B. divergens (per os) is “active in vivo against B. divergens in gerbils”.
For the compound `N=C(N)c1ccc(OCCCCCOc2ccc(C(=N)N)cc2)cc1` [Pentamidine isethionate], the IC50 is 360 nM with B-divergens [1] (in vitro, bovine red cells) and 456 nM with B-divergens [2] (in vitro, human red cells).
For the compound `O=C1C(O)=C(C2CCC(c3ccc(Cl)cc3)CC2)C(=O)c2ccccc21` (mixture of isomers) [2-[4-(4-chlorophenyl)cyclohexyl]-3-hydroxy-1,4-naphthoquinone], the “activity against L. donovani in vitro” value in the experiment with Leishmania donovani (50 μM) is “active at 50 μM concentration against L. donovani”. Moreover, the inhibition (commonly the drop in the measured response relative to a control, in per cent) at 0.4 µM in the experiment with Leishmania donovani (Leishmania donovani, Peritoneal macrophage, 168 h, 0.4 μM, 7 days) is 6%. The compound also had an inhibition at 2 µM in the experiment on Leishmania donovani (Leishmania donovani, Peritoneal macrophage, 168 h, 2 μM, 7 days) of 0%. The compound also registered an inhibition at 10 µM with Leishmania donovani (Leishmania donovani, Peritoneal macrophage, 168 h, 10 μM, 7 days) of 14.7%. For the same compound, the inhibition at 50 µM with Leishmania donovani (Leishmania donovani, Peritoneal macrophage, 168 h, 50 μM, 7 days) came out at 64.8%. For the same compound, the EC50 with Leishmania donovani (Leishmania donovani, Peritoneal macrophage, 168 h, 7 days exposure, sigmoidal analysis, P95% limits in brackets, read-out: ED50 [P95% limits]) was determined as 29500 nM. Moreover, the “% Suppression of Liver Amastigotes” value in the experiment with L. donovani (100 mg/kg/day × 5, Oral) was determined as 0%; in the experiment with L. donovani (100 mg/kg/day × 5, Subcutaneous) it was 30.5%. Further, the “activity against L. donovani in vivo” value in the experiment on L. donovani (subcutaneous) was “active when administered subcutaneously”.
In the case of `C[n+]1cccc2cc(NC(=O)Nc3ccc4c(ccc[n+]4C)c3)ccc21` [Quinuronium sulphate], the IC50 in the experiment on B-divergens [1] (in vitro, bovine red cells) is 34 nM; with B-divergens [2] (in vitro, human red cells), 96 nM.
